# Source: patent US4652566A, “Benzofuran derivatives, processes for preparing the same and antihypertensive agents containing the same” (Kaken Pharmaceutical Co., Ltd., priority 1984, dated 1987)
# Counter-ions that a name gives are not always drawn.
# Legend:
# [1] = Increasing effect on a coronary blood flow (anesthetized dog); format: in vivo; settings: administered once into perfusion channel
# Procedure: [Increasing effect on a coronary blood flow]
# Adult dog weighed 9 to 13 kg which was anesthetized intravenously with 30 mg/kg of pentobarbiturate was used for this experiment. The animal was cut open at a chest under a condition of an artificial respiration. After an intravenous injection of 1000 U/kg of heparin, a glass cannula was inserted into coronary ramus circumflexus by way of a left subclavina artery and a perfusion was carried out with blood introduced from a right carotid artery. A blood flow was measured by means of a electromagnetic flowmeter set up at a perfusion channel.
# Each of test compounds was dissolved in a physiologic salt solution and the solution was administered once into a perfusion channel. An increase of a coronary blood flow was indicated as a percentage of an increasing rate.
# For the purpose of a comparison, the same experiment as mentioned above was carried out on Papavelin which was commonly used as coronary vasodilator.
# [2] = target: T1, calcium antagonism (thoracic aorta spiral specimen, contraction by calcium) (Cavia porcellus, UniProt O35505); assay: Calcium antagonistic effect (contraction response by calcium of spiral thoracic aorta specimen, Magnus method); parameters: species or system Hartly male giunea pig; settings: guinea pig thoracic aorta; for Kb: antagonism of calcium contraction, read-out: Calcium antagonistic effect, pA2 value (converted)
# T1 construct: from tissue; host or cells: thoracic aorta spiral strip of male Hartley guinea pig
# T1 sequence (O35505 whole entry): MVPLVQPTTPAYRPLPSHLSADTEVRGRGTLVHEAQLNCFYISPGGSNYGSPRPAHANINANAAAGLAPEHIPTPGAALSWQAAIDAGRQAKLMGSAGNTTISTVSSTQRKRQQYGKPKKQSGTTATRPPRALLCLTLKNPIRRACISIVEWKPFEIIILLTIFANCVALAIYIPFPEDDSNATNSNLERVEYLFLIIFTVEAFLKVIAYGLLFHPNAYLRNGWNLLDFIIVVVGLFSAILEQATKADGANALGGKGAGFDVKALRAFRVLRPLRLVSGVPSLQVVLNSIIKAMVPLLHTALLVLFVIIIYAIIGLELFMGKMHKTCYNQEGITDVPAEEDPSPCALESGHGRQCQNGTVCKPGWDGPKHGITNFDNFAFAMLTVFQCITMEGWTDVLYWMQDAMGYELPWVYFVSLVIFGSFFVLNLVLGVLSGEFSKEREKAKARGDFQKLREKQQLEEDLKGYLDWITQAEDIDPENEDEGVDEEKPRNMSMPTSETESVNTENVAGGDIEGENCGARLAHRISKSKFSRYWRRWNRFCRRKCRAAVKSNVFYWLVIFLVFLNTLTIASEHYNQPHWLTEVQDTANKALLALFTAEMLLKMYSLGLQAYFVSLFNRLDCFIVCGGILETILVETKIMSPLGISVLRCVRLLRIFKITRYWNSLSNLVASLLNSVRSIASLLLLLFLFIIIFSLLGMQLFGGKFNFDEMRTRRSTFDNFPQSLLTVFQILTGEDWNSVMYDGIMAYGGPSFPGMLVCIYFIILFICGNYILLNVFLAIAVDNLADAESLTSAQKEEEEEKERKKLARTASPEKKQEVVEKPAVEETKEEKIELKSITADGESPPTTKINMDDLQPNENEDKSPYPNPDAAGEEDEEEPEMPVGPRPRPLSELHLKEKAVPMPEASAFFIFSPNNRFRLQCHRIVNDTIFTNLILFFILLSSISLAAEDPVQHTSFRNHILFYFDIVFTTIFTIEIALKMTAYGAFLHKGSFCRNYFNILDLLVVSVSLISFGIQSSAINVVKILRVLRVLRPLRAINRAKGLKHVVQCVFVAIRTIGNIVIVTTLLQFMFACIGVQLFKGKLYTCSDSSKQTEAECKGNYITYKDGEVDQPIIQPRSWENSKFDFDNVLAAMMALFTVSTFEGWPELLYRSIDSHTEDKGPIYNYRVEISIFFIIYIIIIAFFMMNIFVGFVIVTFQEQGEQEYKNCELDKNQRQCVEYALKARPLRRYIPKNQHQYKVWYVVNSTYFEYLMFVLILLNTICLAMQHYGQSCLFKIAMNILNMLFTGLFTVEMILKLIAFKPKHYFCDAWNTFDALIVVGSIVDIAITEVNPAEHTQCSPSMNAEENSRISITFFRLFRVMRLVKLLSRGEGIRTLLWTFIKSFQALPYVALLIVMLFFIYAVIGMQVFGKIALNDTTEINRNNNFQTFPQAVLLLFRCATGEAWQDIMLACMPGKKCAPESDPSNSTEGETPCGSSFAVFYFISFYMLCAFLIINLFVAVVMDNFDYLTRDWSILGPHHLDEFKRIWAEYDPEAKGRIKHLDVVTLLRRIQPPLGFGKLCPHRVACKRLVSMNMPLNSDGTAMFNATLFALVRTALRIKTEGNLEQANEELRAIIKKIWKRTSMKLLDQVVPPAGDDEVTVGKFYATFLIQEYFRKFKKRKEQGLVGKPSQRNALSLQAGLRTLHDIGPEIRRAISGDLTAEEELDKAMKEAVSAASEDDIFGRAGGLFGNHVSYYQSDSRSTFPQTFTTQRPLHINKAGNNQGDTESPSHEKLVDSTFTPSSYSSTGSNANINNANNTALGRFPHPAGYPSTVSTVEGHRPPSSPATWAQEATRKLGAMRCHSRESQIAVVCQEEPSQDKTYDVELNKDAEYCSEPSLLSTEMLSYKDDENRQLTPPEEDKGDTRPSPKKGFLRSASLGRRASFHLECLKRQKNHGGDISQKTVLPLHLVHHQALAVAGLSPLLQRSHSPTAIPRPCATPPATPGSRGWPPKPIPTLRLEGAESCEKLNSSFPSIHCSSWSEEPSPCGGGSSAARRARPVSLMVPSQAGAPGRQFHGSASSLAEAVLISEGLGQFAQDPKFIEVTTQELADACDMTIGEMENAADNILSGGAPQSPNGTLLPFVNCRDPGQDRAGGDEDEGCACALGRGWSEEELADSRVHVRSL
# Procedure: [Calcium antagonistic effect]
# Using a spiral blood vessel specimen taken from a thoracic aorta of Hartly male giunea pig weighed 400 to 600 g, a contraction response by calcium was measured as a dose-response curve according to Magnus method and the antagonistic activity for each test compound was indicated as above-mentioned pA2 value.
# [3] = target: T2, α-adrenergic blockade (vas deferens specimen, contraction by noradrenalin) (Rattus norvegicus, UniProt P43140); assay: α-Adrenergic blockade effect (contraction response by noradrenalin of vas deferens specimen, Magnus method); parameters: species or system Wister male rat; settings: for Kb: rat vas deferens, antagonism of noradrenalin contraction, pA2 = negative logarithm of antagonist dose shifting agonist curve two times, read-out: α-Adrenergic blockade effect, pA2 value (converted)
# T2 construct: from tissue; host or cells: vas deferens of six-week-old male Wistar rat
# T2 sequence (P43140 1-466): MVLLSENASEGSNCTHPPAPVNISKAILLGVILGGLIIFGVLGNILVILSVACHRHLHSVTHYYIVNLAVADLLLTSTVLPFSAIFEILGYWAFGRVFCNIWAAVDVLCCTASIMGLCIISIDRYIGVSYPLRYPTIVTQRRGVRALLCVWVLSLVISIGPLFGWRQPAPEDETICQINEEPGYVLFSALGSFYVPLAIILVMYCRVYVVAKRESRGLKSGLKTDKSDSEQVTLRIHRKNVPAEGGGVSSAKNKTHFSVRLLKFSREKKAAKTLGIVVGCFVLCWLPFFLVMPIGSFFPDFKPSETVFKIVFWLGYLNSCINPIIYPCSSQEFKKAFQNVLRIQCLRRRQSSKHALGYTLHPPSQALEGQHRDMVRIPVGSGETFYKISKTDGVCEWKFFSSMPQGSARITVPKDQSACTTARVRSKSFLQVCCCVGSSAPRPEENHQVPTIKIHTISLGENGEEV
# [4] = Accute toxicity test (LD50 value); settings: mouse, in vivo; mice; single oral administration; deaths by seventh day; Litchfield-Wilcoxon
# Procedure: [Accute toxicity test (LD50 value)]
# The experiment was carried out using six weeks old ddy male mice.
# Each of test compounds was suspended in an aqueous solution containing 5% by weight of acasia and the suspension was administered compulsorily once orally with a gastric probe. Within six hours after the start of the administration, the behavior of tested mice were observed consecutively. Thereafter, the observation was made at an interval of twenty four hours during 7 days and an accumulative number of deaths seventh day since the start of the administration was measured.
# LD50 value was calculated according to the Litchfield-Wilcoxon method.
# [5] = Antihypertensive effect and effect on heart rate in spontaneously hypertensive rat (SHR); format: in vivo; settings: po, single dose
# Procedure: [Antihypertensive effect and effect on a heart rate on rat suffering from a spontaneously hypertensive rat (SHR)]
# A blood pressure was measured under no anesthetic condition by means of an apparatus for recording a blood pressure of a tail artery and a heart rate (Riken Kaihatsu Co., Ltd.) (PS-802) and at the same time a heart rate was also measured.
# Each of test compounds was dissolved or suspended in an aqueous solution containing 5% by weight of acasia and the obtained solution or suspension was administered once orally to SHR which had been kept under a fast condition for one night. A blood pressure and a heart rate were measured before administration and after one hour, three hours, five hours and seven hours of it and the maximum value of changes were calculated by comparing the value measured before administration with the value measured after administration.
# For the purpose of a comparison, the same experiment as mentioned above was carried out on both Labetalol and Diltiazem as mentioned above.
# With respect to a dosage, 100 mg/kg and 10 mg/kg as to compounds obtained by Examples 2, 5, 6, 9 and 18 to 23 were respectively administered, 100 mg/kg as to compounds obtained by Examples 1, 3, 4, 7 and 10 to 17 was respectively administered.
# [6] = 100 mg/kg, maximum over 1, 3, 5, 7 hours (Table 3)
# [7] = 10 mg/kg, maximum over 1, 3, 5, 7 hours (Table 2)
# [8] = 100 mg/kg, maximum over 1, 3, 5, 7 hours (Table 2)
Compound,Increasing rated of coronary blood flow when administered with a 1 mg [1],"Calcium antagonistic effect, relative ratio as compared with Diltiazem ([2]; Diltiazem = 1.0)",Kb [2],"α-Adrenergic blockade effect, relative ratio as compared with Phentolamine [3]",Kb [3],LD50 at 168 h [4],"Maximum value of change, heart rate [5, 6]","Maximum value of change, systolic pressure [5, 6]","Maximum value of change, heart rate [5, 7]","Maximum value of change, systolic pressure [5, 7]","Maximum value of change, heart rate [5, 8]","Maximum value of change, systolic pressure [5, 8]"
"COc1ccc(Cc2nccc3cc(OC)c(OC)cc23)cc1OC [papavelin, Papavelin, reference compound]",136.3 ± 27.0%,,,,,,,,,,,
COc1ccccc1N1CCN(CC(O)COc2ccc3oc(C(C)=O)cc3c2)CC1 (stereo not shown) [Ex. 5 (HCl salt)],107.5 ± 6.5%,1.9,46.8 nM,3.2,49 nM,> 1500 mg/kg,,,,,,
NC(=O)c1cc2cccc(OCC(O)CN3CCN(c4cccc(Cl)c4)CC3)c2o1 (stereo not shown) [Ex. 15],,,398 nM,,3020 nM,> 1000 mg/kg,-100.0 ± 19.5 beats/min,-79.9 ± 11.9 mmHg,,,,
"COc1ccccc1N1CCN(CC(O)COc2cccc3cc(C(C)O)oc23)CC1 (stereo not shown) [Ex. 22, 2-(1-hydroxyethyl)-7-{2-hydroxy-3-[4-(2-methoxyphenyl)piperazinyl]propoxy}benzofuran]",87.7 ± 9.4%,,1050 nM,,50.1 nM,> 1500 mg/kg,,,-149.2 ± 15.3 beats/min,-42.8 ± 6.7 mmHg,-160.2 ± 19.8 beats/min,-69.5 ± 7.9 mmHg
"Cc1ccccc1N1CCN(CC(O)COc2ccc3cc(C(N)=O)oc3c2)CC1 (stereo not shown) [Ex. 14, 2-carbamoyl-6-{2-hydroxy-3-[4-(2-methylphenyl)piperazinyl]-propoxy}benzofuran]",,,182 nM,,110 nM,> 1000 mg/kg,-132.9 ± 28.8 beats/min,-67.3 ± 6.8 mmHg,,,,
"COc1ccccc1N1CCN(CC(O)COc2cccc3cc(C(C)=O)oc23)CC1 (stereo not shown) [Ex. 2 (HCl salt), 2-acetyl-7-{2-hydroxy-3-[4-(2-methoxyphenyl)piperazinyl]-propoxy}benzofuran]",88.4 ± 14.2%,,195 nM,,38.9 nM,,,,,,,
"COc1ccccc1N1CCN(CC(O)COc2cccc3cc(C#N)oc23)CC1 (stereo not shown) [Ex. 16 (HCl salt), 2-cyano-7-{2-hydroxy-3-[4-(2-methoxyphenyl)piperazinyl]-propoxy} benzofuran]",,,513 nM,,42.7 nM,900 mg/kg,-189.6 ± 26.8 beats/min,-13.3 ± 4.6 mmHg,,,,
"Cc1ccccc1N1CCN(CC(O)COc2cccc3cc(C(C)O)oc23)CC1 (stereo not shown) [Ex. 23, 2-(1-hydroxyethyl)-7-{2-hydroxy-3-[4-(2-methylphenyl)piperazinyl]propoxy}benzofuran]",,,589 nM,,77.6 nM,> 1000 mg/kg,,,-93.4 ± 17.6 beats/min,-54.9 ± 9.4 mmHg,-131.4 ± 22.3 beats/min,-73.1 ± 9.2 mmHg
"CC(=O)c1cc2cccc(OCC(O)CN3CCN(c4ccccc4)CC3)c2o1 (stereo not shown) [Ex. 1 (HCl salt), 2-acetyl-7-[3-(4-phenylpiperazinyl)-2-hydroxypropoxy]benzofuran]",,,2950 nM,,209 nM,> 1000 mg/kg,-105.8 ± 3.4 beats/min,-74.6 ± 5.6 mmHg,,,,
COc1ccccc1N1CCN(CC(O)COc2ccc3oc(C(N)=O)cc3c2)CC1 (stereo not shown) [Ex. 12],,,1170 nM,1.6,100 nM,> 1500 mg/kg,-110.0 ± 20.0 beats/min,-100.2 ± 3.9 mmHg,,,,
"COc1ccccc1N1CCN(CC(O)COc2ccc3cc(C(N)=O)oc3c2)CC1 (stereo not shown) [Ex. 11, 2-carbamoyl-6-{2-hydroxy-3-[4-(2-methoxyphenyl)piperazinyl]propoxy}benzofuran]",,,158 nM,,57.5 nM,> 1500 mg/kg,-126.5 ± 27.3 beats/min,-78.8 ± 7.6 mmHg,,,,
"Cc1ccccc1N1CCN(CC(O)COc2cccc3cc(C(N)=O)oc23)CC1 (stereo not shown) [Ex. 13, 2-carbamoyl-7-{2-hydroxy-3-[4-(2-methylphenyl)piperazinyl]propoxy}benzofuran]",,,1350 nM,,240 nM,> 1500 mg/kg,-80.0 ± 16.6 beats/min,-97.0 ± 9.8 mmHg,,,,
"COc1ccccc1N1CCN(CC(O)COc2ccc3cc(C(C)=O)oc3c2)CC1 (stereo not shown) [Ex. 4 (HCl salt), 2-acetyl-6-{2-hydroxy-3-[4-(2-methoxyphenyl)piperazinyl]-propoxy}benzofuran]",,,525 nM,,22.4 nM,> 1000 mg/kg,-172.5 ± 23.9 beats/min,-114.2 ± 1.7 mmHg,,,,
"COc1ccccc1N1CCN(CC(O)COc2ccc3cc(C#N)oc3c2)CC1 (stereo not shown) [Ex. 17 (HCl salt), 2-cyano-6-{2-hydroxy-3-[4-(2-methoxyphenyl)piperazinyl]propoxy}benzofuran]",,,115 nM,,204 nM,900 mg/kg,-154.5 ± 21.1 beats/min,-40.5 ± 6.6 mmHg,,,,
"COc1ccc(N2CCN(CC(O)COc3cccc4cc(C(C)=O)oc34)CC2)cc1 (stereo not shown) [Ex. 3 (HCl salt), 2-acetyl-7-{2-hydroxy-3-[4-(4-methoxyphenyl)piperazinyl]-propoxy}benzofuran]",,,631 nM,,457 nM,700 mg/kg,-200.0 ± 28.4 beats/min,-22.9 ± 1.7 mmHg,,,,
